In ChEMBL document CHEMBL1201862, “PubChem BioAssay data set” (2004):
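Grown in 96-well plates, cells were treated for 48 hours with each compound at five concentrations. Insufficient inhibition: endpoint recorded as highest concentration tested. GI50: concentration for 50% inhibition of growth.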 Active and inactive are the calls of the source. Cut-off read from the data, not from the text of the source: active = GI50 up to about 1.1 µM and inactive = higher.

Legend:
Test in all cases: growth of human tumour cells (NCI), 48 h
SNB-78 = test system: SNB-78
OVCAR-8 = test system: OVCAR-8
A549 = test system: A549
Malme-3M = test system: Malme-3M
K562 = test system: K562
SF-268 = test system: SF-268
KM12 = test system: KM12
SW-620 = test system: SW-620
HL-60 = test system: HL-60
SN12C = test system: SN12C
CCRF-CEM = test system: CCRF-CEM
SK-OV-3 = test system: SK-OV-3
XF498 = test system: XF498
M19-MEL = test system: M19-MEL
HOP-62 = test system: HOP-62
SNB-19 = test system: SNB-19
MDA-MB-435 = test system: MDA-MB-435
MDA-MB-231 = test system: MDA-MB-231
PC-3 = test system: PC-3
Hs-578T = test system: Hs-578T

Measured: GI50

CC(NC(=O)C(C)NC(=O)C(N)CCP(C)(=O)O)C(=O)O (stereo unspecified)
inactive: SNB-78 > 100 µM | OVCAR-8 > 100 µM | A549 > 100 µM | Malme-3M > 100 µM | K562 > 100 µM | SF-268 > 100 µM | KM12 > 100 µM | SW-620 > 100 µM | HL-60 > 100 µM | SN12C > 100 µM | CCRF-CEM > 100 µM | SK-OV-3 > 100 µM | XF498 > 100 µM | M19-MEL > 100 µM | HOP-62 > 100 µM | SNB-19 > 100 µM

COc1ccccc1Cc1nc(-c2ccccc2)nn(C2OC(COC(C)=O)C(OC(C)=O)C(OC(C)=O)C2OC(C)=O)c1=S (stereo unspecified)
inactive: SNB-78 18.2 µM | OVCAR-8 5.64 µM | A549 16.4 µM | Malme-3M 5.53 µM | K562 > 58.3 µM | SF-268 6.1 µM | KM12 > 54.6 µM | SW-620 > 72.8 µM | HL-60 > 64.7 µM | SN12C 9.35 µM | CCRF-CEM > 100 µM | SK-OV-3 36.7 µM | XF498 1.86 µM | M19-MEL 32.7 µM | HOP-62 10.1 µM | SNB-19 5.75 µM

CC(C)(C)N1C(C(=O)c2ccccc2)C1c1ccccc1 (stereo unspecified)
inactive: SNB-78 > 100 µM | OVCAR-8 > 100 µM | A549 > 100 µM | K562 > 100 µM | KM12 > 100 µM | SW-620 > 100 µM | HL-60 > 100 µM | SN12C > 100 µM | CCRF-CEM > 100 µM | SK-OV-3 > 100 µM | M19-MEL > 100 µM | HOP-62 > 100 µM | SNB-19 > 100 µM

c1c2c(cc(-n3nnc4c3CCCCCC4)c1-n1nnc3c1CCCCCC3)CCCCCC2
inactive: SNB-78 13.6 µM | OVCAR-8 12.7 µM | K562 4.36 µM | SF-268 9.46 µM | KM12 11.8 µM | SW-620 11.2 µM | HL-60 3.8 µM | SN12C 10.8 µM | CCRF-CEM 3.79 µM | SK-OV-3 14.8 µM | XF498 1.9 µM | M19-MEL 8.77 µM | HOP-62 17.8 µM | SNB-19 12.8 µM

CCCCCCCCC(O)c1ccc(/C=C\C(O)CCCC(=O)O)s1 (stereo unspecified)
inactive: SNB-78 > 100 µM | OVCAR-8 > 100 µM | A549 > 100 µM | Malme-3M > 100 µM | K562 > 100 µM | SF-268 > 100 µM | KM12 > 100 µM | SW-620 > 100 µM | HL-60 > 100 µM | SN12C > 100 µM | CCRF-CEM > 100 µM | SK-OV-3 > 100 µM | XF498 > 100 µM | M19-MEL > 100 µM | SNB-19 > 100 µM

CC1C(=O)C(C)C(c2cccs2)N(N=O)C1c1cccs1 (stereo unspecified)
inactive: SNB-78 > 68.2 µM | OVCAR-8 > 100 µM | A549 > 100 µM | K562 > 80.5 µM | SF-268 > 100 µM | KM12 > 100 µM | SW-620 > 100 µM | HL-60 > 100 µM | SN12C > 100 µM | CCRF-CEM > 100 µM | SK-OV-3 > 56 µM | XF498 14.8 µM | M19-MEL > 100 µM | HOP-62 > 100 µM | SNB-19 > 100 µM

COc1ccccc1C1C(Cl)C(=O)N1n1cnc2ccccc2c1=O (stereo unspecified)
inactive: SNB-78 > 100 µM | OVCAR-8 > 100 µM | A549 > 100 µM | Malme-3M > 100 µM | K562 > 100 µM | SF-268 > 100 µM | KM12 > 100 µM | SW-620 > 100 µM | HL-60 > 100 µM | SN12C > 100 µM | CCRF-CEM > 100 µM | SK-OV-3 > 100 µM | XF498 > 100 µM | M19-MEL > 100 µM | HOP-62 > 100 µM | SNB-19 75 µM

COc1cc(C2C(C(=O)O)=C(COC(C)=O)Oc3cc4c(cc32)OCO4)cc(OC)c1OC (stereo unspecified)
inactive: SNB-78 > 100 µM | OVCAR-8 > 100 µM | A549 > 100 µM | Malme-3M > 100 µM | K562 > 100 µM | SW-620 > 100 µM | HL-60 > 100 µM | SN12C > 100 µM | CCRF-CEM > 100 µM | SK-OV-3 > 100 µM | XF498 > 100 µM | M19-MEL > 100 µM | HOP-62 > 100 µM | SNB-19 > 100 µM

O=C1CCCC(=O)N1CCc1c[nH]c2ccccc12
inactive: SNB-78 > 100 µM | OVCAR-8 > 100 µM | A549 > 100 µM | Malme-3M > 100 µM | K562 > 100 µM | SF-268 > 100 µM | KM12 > 100 µM | SW-620 > 100 µM | HL-60 > 100 µM | SN12C > 100 µM | CCRF-CEM > 100 µM | SK-OV-3 > 100 µM | XF498 > 100 µM | M19-MEL > 100 µM | HOP-62 > 100 µM | SNB-19 > 100 µM

Fc1ccccc1C1CC(C(c2ccccc2)c2ccccc2)=Nc2ccccc2S1 (stereo unspecified)
inactive: OVCAR-8 7.71 µM | A549 11.4 µM | Malme-3M 16 µM | K562 2.73 µM | SF-268 11.4 µM | KM12 5.38 µM | SW-620 6.04 µM | HL-60 2.55 µM | SN12C 10.2 µM | CCRF-CEM 1.91 µM | SK-OV-3 26.9 µM | XF498 13.7 µM | HOP-62 12.6 µM | SNB-19 14.4 µM

Cc1cc2c(cc1C)N1Cc3c(ccc(C)c3C)N(C2)C1.Cc1cc2c(cc1C)N1Cc3cc(C)c(C)cc3N(C2)C1
inactive: SNB-78 > 100 µM | OVCAR-8 > 100 µM | A549 > 100 µM | K562 70.8 µM | SF-268 > 100 µM | KM12 > 100 µM | SW-620 > 100 µM | HL-60 35.2 µM | SN12C 10 µM | CCRF-CEM > 100 µM | SK-OV-3 > 100 µM | XF498 > 100 µM | M19-MEL > 100 µM | HOP-62 74.5 µM | SNB-19 > 100 µM

CC(C)(C)[Si](C)(C)OCC1OC(n2cnc3c(NC(=O)c4ccccc4)ncnc32)CC1O (stereo unspecified)
inactive: MDA-MB-435 22.1 µM | OVCAR-8 39.3 µM | A549 42.7 µM | MDA-MB-231 22.1 µM | Malme-3M 30.5 µM | K562 23.4 µM | PC-3 37.5 µM | SF-268 64.4 µM | KM12 34.7 µM | Hs-578T 19.2 µM | SW-620 40.9 µM | HL-60 28 µM | SN12C 33.4 µM | CCRF-CEM 22.4 µM | SK-OV-3 23.2 µM | HOP-62 19 µM | SNB-19 28.6 µM

O=NN1CCN=C1c1ccc([N+](=O)[O-])cc1
inactive: SNB-78 > 100 µM | OVCAR-8 > 100 µM | A549 > 100 µM | Malme-3M > 100 µM | K562 > 100 µM | SF-268 > 100 µM | KM12 > 100 µM | SW-620 > 100 µM | HL-60 > 100 µM | SN12C > 100 µM | SK-OV-3 > 100 µM | XF498 > 100 µM | M19-MEL > 100 µM | HOP-62 > 100 µM | SNB-19 > 100 µM
